Data taken from patent US20140301947A1, “METHODS TO PREDICT BINDING AFFINITY OF TSPO IMAGING AGENTS TO TSPO” (IMPERIAL INNOVATIONS LIMITED, priority 2011, published 2014).
Values joined by “and” are separate entries in the source; they are usually repeats but may differ in a detail not shown here. Identical values can stand only once. Like-named read-outs stand apart in the source and are kept apart here.

Experiments:
TSPO [1] = test: Competition binding with [3H]PK11195 in human brain (method of J Nucl Med 2011;52:24-32); conditions: for ratio of specific signal, LAB: LAB set to 1; for LAB/HAB: ratio of Ki LAB to Ki HAB; for ratio of specific signal, HAB / ratio of specific signal, MAB: relative to LAB = 1
From the text: (§1) Thus, for example, the binding affinity of the compound may be determined in tissue derived from a HAB and in tissue derived from a LAB. An appropriate method may comprise the following steps: • obtain samples from human volunteers of tissue which contains TSPO (for example brain (for example for archive samples) or platelets (for example from blood)).
(§2) In more detail, as an example, a 48 well plate may be used, for example with 8-12 different concentrations of experimental drug for each experiment (be it the radiolabelled drug for saturation studies or the un-radiolabelled drug for competition studies). Concentrations may range from around 0.1 nM, increasing in roughly half logs (ie 0.1 nM, 0.3 nM, 1 nM, 3 nM etc) up to around 10,000 nM. 3-4 wells may be used for each concentration and the average taken to increase the precision around the estimate for each data point. The amount of tissue material required depends on how much TSPO is in the chosen tissue. For brain ˜100 micrograms of protein in each well (500 microlitres) may typically be used, giving a protein concentration of ˜200 micrograms/ml. Similar amounts may be used for platelets. For a tissue with very high TSPO levels (eg adrenal gland) a lot less protein would be needed.

TSPO [2] = target: T1, TSPO (Homo sapiens, UniProt P30536); test: as above; set-up: Ki MAB; Vinpocetine Ki, MAB; conditions: mixed affinity binders, single value, human brain; read-out: Ki MAB
From the text: as §1, §2

TSPO [3] = target: T1, TSPO; test: as above; set-up: from tissue; host or cells: human brain (membrane preparation, by the cited method)
From the text: as §1, §2
Target sequence in this assay (P30536 2-169): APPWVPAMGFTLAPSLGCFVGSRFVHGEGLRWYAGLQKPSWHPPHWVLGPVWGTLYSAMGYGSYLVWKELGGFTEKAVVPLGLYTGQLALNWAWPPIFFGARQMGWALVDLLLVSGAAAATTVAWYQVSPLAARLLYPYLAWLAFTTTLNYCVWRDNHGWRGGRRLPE

TSPO [4] = target: T2, TSPO (Homo sapiens, UniProt P30536, T147A); test: as above; set-up: from tissue; host or cells: human brain (membrane preparation, by the cited method); conditions: human brain
From the text: as §1, §2

TSPO [5] = test: Autoradiography with [18F]FEPPA on slides previously characterised with [3H]PBR28; assay type: binding; conditions: LAB slide versus HAB and MAB slides
From the text: FIG. 4: Autoradiograhpy (above) with [^18F]FEPPA (structure below). The sample slides in the figure have been previously characterised with [^3H]PBR28 and are all from HABs and MABs, but for the slide second from the left which is a LAB.

TSPO [6] = test: Competition radioligand binding assay with [3H]PK11195 and unlabelled GE1 in HABs and LABs; set-up: species or system human; conditions: LAB mean Ki / HAB mean Ki
Method: (§3) FIG. 6: Competition radioligand binding assay with [3H]
(§4) Binding assays were performed as for the other compounds, as described above. The compound concentrations used were 10000 nM, 3000 nM. 1000 nM, 300 nM, 100 nM. 30 nM, 10 nM, 3 nM, 1 nM, 0.3 nM and 0.03 nM. 6 HABS and 6 LABs were used.

TSPO [7] = target: T1, TSPO; test: as above; set-up: from tissue; host or cells: human brain (membrane preparation, by the cited method)
Method: as §3, §4
Target sequence in this assay (P30536 2-169): as above

TSPO [8] = target: T2, TSPO; test: as above; set-up: from tissue; host or cells: human brain (membrane preparation, by the cited method)
Method: as §3, §4

TSPO [9] = target: T1, TSPO; test: Competition binding assay, unlabelled PBR28 displacing [3H]PK11195 in human platelet membranes; set-up: from tissue; conditions: platelets, mean±SEM
Method: (§5) The study protocol, volunteer information and informed consent forms were approved by the local Research Ethics Committee. Forty-one healthy volunteers (29 male, 12 female, mean age 36.3±1.4 years) were recruited. […] Venous blood (50 ml) was drawn into EDTA-containing tubes, and separated into a lymphocyte-rich bottom layer (for genetic analysis) and platelet-rich top layer by centrifugation (180×g, 15 min, 4° C.). The platelet-rich layer (for binding assays) was re-centrifuged (1800×g, 15 min, 4° C.) to produce a platelet-containing pellet. Platelet membranes were prepared as previously described (5).
(§6) Binding data were analysed using GraphPad Prism 5.0. Single site and two site competition models were fitted using the least squares algorithm and model selection was compared using an F-test. The null hypothesis, that the data fitted a single site model, was rejected if the p value was less than 0.05. […] MABs were defined as subjects with two binding sites. Data are expressed as the mean±standard error of the mean (SEM).
Target sequence in this assay (P30536 2-169): as above

TSPO [10] = target: T2, TSPO; test: as above; set-up: from tissue; conditions: platelets, mean±SEM
Method: as §5, §6

TSPO [11] = target: T1, TSPO; set-up: from tissue; host or cells: human brain (membrane preparation, by the cited method); conditions: background, reference (5); read-out: Ki values for LABs; cited from earlier work
Target sequence in this assay (P30536 2-169): as above

TSPO [12] = target: T2, TSPO; set-up: from tissue; host or cells: human brain (membrane preparation, by the cited method); conditions: background, reference (5); read-out: Ki values for HABs; cited from earlier work
TSPO [13] = test: Competition binding assay with [3H]PK11195 and unlabelled vinpocetine in human brain membranes; conditions: average of HAB and LAB means; read-out: mean Ki value of HABs and LABs
Method: (§7) Tissue was obtained from the UK Multiple Sclerosis (MS) Tissue Bank at Imperial College. All tissue blocks obtained included only “normal appearing” tissue, without immunohistochemical evidence of demyelination or significant inflammatory infiltrate. The tissue was stored at −80° C. until use. Tissue blocks from 15 donors (5 each from HAB, MAB and LAB donors) were used. The binding affinity classification for each tissue block had been established previously using PBR28 (Owen et al. 2010).
(§8) Tissue blocks were homogenised in 10 times weight for volume (w/v) buffer ([…], 5 mM Tris base, 1 mM MgCl2, pH 7.4, 4° C.). […]
(§9) Following incubation, assays were terminated via filtration through Whatman GF/B filters, followed by 3×1 ml washes with ice-cold wash buffer (50 mM Tris Base, 1.4 mM MgCl2, pH 7.4, 4° C.). […] Scintillation fluid (4 ml/vial, Perkin Elmer Ultima Gold MV) was added and vials counted on a Perkin Elmer Tricarb 2900 liquid scintillation counter. […] Ki (nM) values were determined using GraphPad Prism 5.0 software (GraphPad Software Inc, USA).
(§10) Protein concentrations (μg protein/ml) were determined using the Bicinchoninic acid assay (BCA Kit, Sigma-Aldrich, UK) and absorption read at 562 nm.
(§11) Data were analysed using the iterative non-linear regression curve fitting software supplied with GraphPad Prism 5.0. […] Data are expressed as the mean (standard error of the mean). […]

TSPO [14] = target: T3, TSPO (Rattus norvegicus, UniProt P16257); conditions: rat heart; cited from earlier work
T3 construct: 200 nM in the rat heart (Gulyas et al. 2005); host or cells: rat heart

[15] = tested on: sodium channels, calcium channels, phosphodiesterases or NF-κB; conditions: cited from earlier work
TSPO [16] = target: T1, TSPO; conditions: high affinity interaction (<100 nM) excluded; not formally measured; cited from earlier work
Target sequence in this assay (P30536 whole entry): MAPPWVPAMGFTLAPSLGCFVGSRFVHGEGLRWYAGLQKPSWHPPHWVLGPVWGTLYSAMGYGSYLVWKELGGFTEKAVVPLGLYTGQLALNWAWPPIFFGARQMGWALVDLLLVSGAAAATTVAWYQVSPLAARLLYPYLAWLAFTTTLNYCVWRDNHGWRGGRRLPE

TSPO [17] = target: T1, TSPO; test: Competition binding assay with [3H]PK11195 and unlabelled vinpocetine in human brain membranes; set-up: Ki MAB; Vinpocetine Ki, MAB; conditions: A/T subjects, mixed affinity binder, human brain, mean (SEM), read-out: Vinpocetine Ki, MAB
Method: as §7, §8, §9, §10, §11

TSPO [18] = target: T2, TSPO; test: as above; set-up: from tissue; host or cells: human brain (membrane preparation, by the cited method); conditions: A/A subjects, high affinity binder, human brain, mean (SEM); read-out: Vinpocetine Ki, HAB
Method: as §7, §8, §9, §10, §11

[19] = low affinity binders, human brain, read-out: Ki LAB
[20] = high affinity binders, nM, read-out: Ki HAB
[21] = grouping of ligands into 3 distinct affinities, read-out: affinity for the "Low Affinity receptor"
[22] = mixed affinity binders, two values given, human brain, read-out: Ki MAB, second (low affinity) value
[23] = mixed affinity binders, two values given, read-out: Ki MAB, first (high affinity) value

T2 sequence (P30536 2-169 T147A): as the sequence (P30536 2-169) above, with T146A counted along it

Ki (TSPO [2]) [nM]	SMILES	ratio of specific signal, LAB (TSPO [1])	LAB/HAB (TSPO [1])	ratio of specific signal, HAB (TSPO [1])	ratio of specific signal, MAB (TSPO [1])	Ki (TSPO [3]; [19]) [nM]	Ki (TSPO [4]; [20]) [nM]	further results
4.8 ± 0.4	COc1ccc(OC)c(CN(C(C)=O)c2cc(F)ccc2Oc2ccccc2)c1 [DAA1106]	1	4.7	4.7	2.9	13.1 ± 1.3	2.8 ± 0.3	
10.5 ± 0.99	CCN(Cc1ccccc1)C(=O)Cn1c(=O)n(C)c2cnc(-c3ccccc3)nc21 [Emapunil]		12.6			30.3 ± 8.7	2.4 ± 0.67	Ki (TSPO [3]; [21]): < 31 nM
	CC(=O)N(Cc1ccccc1OCCF)c1cnccc1Oc1ccccc1 [FEPPA]							autoradiography signal (TSPO [5]): lack of signal for the LAB
	CCN(CC)C(=O)C1CCCC2C1c1c(OC)cccc1N2CCF (stereo not shown) [GE1]	1	11.8	11.8	6.4	145 ± 22.1	12.3 ± 2.1	Affinity shift (TSPO [6]): 11.8 fold; Ki (TSPO [7]; 6 LABs, racemate, read-out: Ki, mean of LABs): 145 nM; IC50 (TSPO [7]; individual LAB subjects, 5 nM [3H]PK11195): 103 nM and 108 nM and 162 nM and 135 nM and 276 nM and 170 nM; Ki (TSPO [7]; individual LAB subjects, read-out: Ki): 87.7 nM and 91.9 nM and 138 nM and 115 nM and 235 nM and 145 nM; Ki (TSPO [8]; 6 HABs, racemate, read-out: Ki, mean of HABs): 12.3 nM; IC50 (TSPO [8]; individual HAB subjects, 5 nM [3H]PK11195): 4.51 nM and 16.1 nM and 10.7 nM and 14.9 nM and 21.2 nM and 19.3 nM; Ki (TSPO [8]; individual HAB subjects, read-out: Ki): 3.85 nM and 13.8 nM and 9.12 nM and 12.7 nM and 18.1 nM and 16.5 nM
	COc1ccc(OC)c(CN(C(=O)CF)c2ccccc2Oc2ccccc2)c1 [PBR06]	1	17	17.3	9.2	149 ± 46.6	8.6 ± 2	Ki (TSPO [3]; [22]): 176 nM; Ki (TSPO [4]; [23]): 13.4 nM
	CC(=O)N(Cc1ccccc1O[11CH3])c1cnccc1Oc1ccccc1 [PBR28]	1	55	55.3	28.2			
	COc1ccccc1CN(C(C)=O)c1cnccc1Oc1ccccc1 [PBR28]					188 ± 7	3.4 ± 0.2	Ki (TSPO [9]; LABs (2/41 subjects), read-out: Ki, single class of low affinity sites): 187 ± 19.7 nM; Ki (TSPO [9]; MABs (12/41 subjects), read-out: Ki, two-site model, low affinity site): 297 ± 43.3 nM; Ki (TSPO [10]; HABs (27/41 subjects), read-out: Ki, single class of high affinity sites): 2.17 ± 0.17 nM; Ki (TSPO [10]; MABs (12/41 subjects), read-out: Ki, two-site model, high affinity site): 2.23 ± 0.31 nM; Ki (TSPO [3]; [22]): 313 nM; Ki (TSPO [4]; [23]): 4 nM; Ki (TSPO [11]): 200 nM; Ki (TSPO [12]): 4 nM
	CCC(C)N(C)C(=O)c1cc2ccccc2c(-c2ccccc2Cl)n1 (stereo not shown) [PK11195, 1-(2-Chlorophenyl)-N-methyl-N-(1-methylpropyl)-3-isoquinolinecarboxamide]							difference in binding affinity to Ala147TSPO and Thr147TSPO (TSPO [1]; assay as in Owen et al (2011) J Nucl Med 52, 24-32): No significant difference in binding affinity has been detected
	CCOC(=O)C1=C[C@]2(CC)CCCN3CCc4c(n1c1ccccc41)[C@@H]32 [Vinpocetine, ethyl apovincaminate]							Ki (TSPO [13]): 443 nM; reported binding affinity (TSPO [14]): 200 nM; concentrations required for these effects ([15]; phosphodiesterase inhibition, blockade of sodium and calcium channels): 1 to 44 µM; affinity for these targets (Ki) ([15]; sodium channels, calcium channels, phosphodiesterases or NF-κB): Ki in the uM range; binding affinity for the TSPO in humans (TSPO [16]): ≥ 100 nM; Ki (TSPO [17]; listed as vinpocetine): 332 nM; Ki (TSPO [17]): 332 nM; Ki (TSPO [18]): 777 nM

SMILES	Ki (TSPO [2]) [nM]	ratio of specific signal, LAB (TSPO [1])	LAB/HAB (TSPO [1])	ratio of specific signal, HAB (TSPO [1])	ratio of specific signal, MAB (TSPO [1])	Ki (TSPO [3]; [19]) [nM]	Ki (TSPO [4]; [20]) [nM]	further results
CCN(CC)C(=O)Cc1c(-c2ccc(OCCCF)cc2)nc2ccc(Cl)cn12 [PBR111]	30.3 ± 4.1	1	4	4.0	2.5	61.8 ± 10.7	15.6 ± 3.7	Ki (TSPO [3]; [21]): ~60 nM; Ki (TSPO [11]): 62 nM; Ki (TSPO [12]): 16 nM
